Assays:
[1] = system: symmetric di-methyl arginine in Z-138 cells; assay: Z-138 Methylation Assay (In Cell Western for symmetric di-methyl arginine and DNA content); type: cell-based; settings: Homo sapiens, read-out: ICW EC50
Excerpt: Z-138 suspension cells were purchased from ATCC (American Type Culture Collection, Manassas, Va.). RPMI/Glutamax medium, penicillin-streptomycin, heat inactivated fetal bovine serum, and D-PBS were purchased from Life Technologies, Grand Island, N.Y., USA. Odyssey blocking buffer, 800CW goat anti-rabbit IgG (H+L) antibody, and Licor Odyssey infrared scanner were purchased from Licor Biosciences, Lincoln, Nebr., USA. Symmetric di-methyl arginine antibody was purchased from EMD Millipore, Billerica, Mass., USA. 16% Paraformaldehyde was purchased from Electron Microscopy Sciences, Hatfield, Pa., USA.
Z-138 suspension cells were maintained in growth medium (RPMI 1640 supplemented with 10% v/v heat inactivated fetal bovine serum and 100 units/mL penicillin-streptomycin) and cultured at 37° C. under 5% CO2.
Cell Treatment, in Cell Western (ICW) for Detection of Symmetric Di-Methyl Arginine and DNA Content.
Z-138 cells were seeded in assay medium at a concentration of 50,000 cells per mL to a 384-well cell culture plate with 50 μL per well. Compound (100 nL) from 384 well source plates was added directly to 384 well cell plate. Plates were incubated at 37° C., 5% CO2 for 96 hours. After four days of incubation, 40 μL of cells from incubated plates were added to poly-D-lysine coated 384 well culture plates (BD Biosciences 356697). Plates were incubated at room temperature for 30 minutes then incubated at 37° C., 5% CO2 for 5 hours. After the incubation, 40 μL per well of 8% paraformaldehyde in PBS (16% paraformaldahyde was diluted to 8% in PBS) was added to each plate and incubated for 30 minutes. Plates were transferred to a Biotek 405 plate washer and washed 5 times with 100 μL per well of wash buffer (1×PBS with 0.1% Triton X-100 (v/v)). Next 30 μL per well of Odyssey blocking buffer were added to each plate and incubated 1 hour at room temperature. Blocking buffer was removed and 20 μL per well of primary antibody was added (symmetric di-methyl arginine diluted 1:100 in Odyssey buffer with 0.1% Tween 20 (v/v)) and plates were incubated overnight (16 hours) at 4° C. Plates were washed 5 times with 100 μL per well of wash buffer. Next 20 μL per well of secondary antibody was added (1:200 800CW goat anti-rabbit IgG (H+L) antibody, 1:1000 DRAQ5 (Biostatus limited) in Odyssey buffer with 0.1% Tween 20 (v/v)) and incubated for 1 hour at room temperature. The plates were washed 5 times with 100 μL per well wash buffer then 1 time with 100 μL per well of water. Plates were allowed to dry at room temperature then imaged on the Licor Odyssey machine which measures integrated intensity at 700 nm and 800 nm wavelengths. Both 700 and 800 channels were scanned.
First, the ratio for each well was determined by:
Each plate included fourteen control wells of DMSO only treatment (minimum inhibition) as well as fourteen control wells for maximum inhibition treated with 3 μM of a reference compound (Background wells). The average of the ratio values for each control type was calculated and used to determine the percent inhibition for each test well in the plate. Reference compound was serially diluted three-fold in DMSO for a total of nine test concentrations, beginning at 3 μM. Percent inhibition was determined and IC50 curves were generated using triplicate wells per concentration of compound.

PRMT5/MEP50 = target: T1, PRMT5/MEP50 (Homo sapiens, UniProt O14744); assay: PRMT5 Biochemical Assay (PRMT5/MEP50 enzyme assay on histone H4 peptide substrate, 3H-SAM Flashplate); settings: PRMT5 biochemical assay; read-out: Biochemical IC50
T1 construct: Flag-PRMT5; made in house; host or cells: Spodoptera frugiperda (SF9), baculovirus
Summary of the method: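 Sf9-expressed Flag-PRMT5/6His-MEP50 preincubated with compound 30 min at 25 °C, then methylation of biotinylated H4 1-15 peptide started with ³H-SAM in 20 mM Bicine pH 7.6, 1 mM TCEP, 0.005% BSG, 0.002% Tween20.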

Z-138 cells = assay: Z-138 Proliferation Assay (Cell Titer Glo, 5 days); type: cell-based; settings: Homo sapiens, 120 h
Excerpt: Z-138 Proliferation Assay
Z-138 suspension cells were purchased from ATCC (American Type Culture Collection, Manassas, Va.). RPMI/Glutamax medium, penicillin-streptomycin, heat inactivated fetal bovine serum were purchased from Life Technologies, Grand Island, N.Y., USA. V-bottom polypropylene 384-well plates were purchased from Greiner Bio-One, Monroe, N.C., USA. Cell culture 384-well white opaque plates were purchased from Perkin Elmer, Waltham, Mass., USA. Cell-Titer Glo® was purchased from Promega Corporation, Madison, Wis., USA. SpectraMax M5 plate reader was purchased from Molecular Devices LLC, Sunnyvale, Calif., USA.
Z-138 suspension cells were maintained in growth medium (RPMI 1640 supplemented with 10% v/v heat inactivated fetal bovine serum and cultured at 37° C. under 5% CO2. Under assay conditions, cells were incubated in assay medium (RPMI 1640 supplemented with 10% v/v heat inactivated fetal bovine serum and 100 units/mL penicillin-streptomycin) at 37° C. under 5% CO2.
For the assessment of the effect of compounds on the proliferation of the Z-138 cell line, exponentially growing cells were plated in 384-well white opaque plates at a density of 10,000 cells/ml in a final volume of 50 μl of assay medium. A compound source plate was prepared by performing triplicate nine-point 3-fold serial dilutions in DMSO, beginning at 10 mM (final top concentration of compound in the assay was 20 μM and the DMSO was 0.2%). A 100 nL aliquot from the compound stock plate was added to its respective well in the cell plate. […] After addition of compounds, assay plates were incubated for 5 days at 37° C., 5% CO2, relative humidity >90%.
Cell viability was measured by quantitation of ATP present in the cell cultures, adding 35 μl of Cell Titer Glo® reagent to the cell plates. Luminescence was read in the SpectraMax M5 microplate reader. The concentration of compound inhibiting cell viability by 50% was determined using a 4-parametric fit of the normalized dose response curves.

T1 sequence (O14744 with tags, fused parts or gaps): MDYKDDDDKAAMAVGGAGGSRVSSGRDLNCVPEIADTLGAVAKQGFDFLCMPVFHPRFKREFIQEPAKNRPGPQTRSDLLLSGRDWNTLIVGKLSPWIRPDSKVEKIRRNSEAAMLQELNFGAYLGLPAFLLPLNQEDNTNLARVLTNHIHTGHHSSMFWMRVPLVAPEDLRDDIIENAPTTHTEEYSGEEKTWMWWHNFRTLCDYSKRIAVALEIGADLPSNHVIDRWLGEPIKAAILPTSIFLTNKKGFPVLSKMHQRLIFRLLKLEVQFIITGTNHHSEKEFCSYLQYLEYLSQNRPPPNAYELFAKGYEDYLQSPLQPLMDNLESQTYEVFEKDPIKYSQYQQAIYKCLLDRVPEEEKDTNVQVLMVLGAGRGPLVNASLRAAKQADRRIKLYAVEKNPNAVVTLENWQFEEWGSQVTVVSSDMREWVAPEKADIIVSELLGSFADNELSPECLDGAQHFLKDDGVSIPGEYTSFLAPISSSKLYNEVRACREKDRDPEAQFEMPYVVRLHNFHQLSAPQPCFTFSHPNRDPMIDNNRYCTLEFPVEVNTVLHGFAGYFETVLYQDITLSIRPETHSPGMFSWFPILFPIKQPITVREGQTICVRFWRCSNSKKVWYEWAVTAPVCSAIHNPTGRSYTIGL
T1 sequence (Q9BQA1 with tags, fused parts or gaps partner limits assumed): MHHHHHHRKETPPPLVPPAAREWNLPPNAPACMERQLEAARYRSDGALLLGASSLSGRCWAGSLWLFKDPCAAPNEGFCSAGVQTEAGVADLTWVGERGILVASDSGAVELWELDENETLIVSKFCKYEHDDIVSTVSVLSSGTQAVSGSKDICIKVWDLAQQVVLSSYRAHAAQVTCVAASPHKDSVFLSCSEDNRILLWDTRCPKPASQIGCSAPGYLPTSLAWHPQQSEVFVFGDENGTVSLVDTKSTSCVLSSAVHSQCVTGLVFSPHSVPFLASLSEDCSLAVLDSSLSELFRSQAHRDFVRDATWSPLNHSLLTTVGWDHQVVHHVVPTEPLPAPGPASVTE

SMILES | EC50 [1] [µM] | IC50 (PRMT5/MEP50) [µM] | EC50 (Z-138 cells) [µM]
Cc1cccc(Cn2ccnc2CN)c1 [Compound 1-13] | > 1 | 1 to 10 | > 5
CC(=O)N1CCC(Nc2cc(C(=O)N(C)C[C@H](O)CN3CCc4ccccc4C3)ccn2)CC1 [Compound 10-9] | < 0.1 | < 0.1 | 0.101 to 1
CC(=O)N1CCC(Nc2cc(C(=O)NC(C)C(O)CN3CCc4ccccc4C3)ccn2)CC1 (stereo not drawn) [Compound 11-9] | < 0.1 | < 0.1 | 0.101 to 1
OC(COc1cccc(-c2ccc3ncsc3c2)c1)CN1CCc2ccccc2C1 (stereo not drawn) [Compound 1-9] | 1 to 10 | 0.101 to 1 | 10 to 50
CC(=O)N1CCC(Nc2cc(C(=O)NC[C@@H](O)CN3CCc4ccccc4C3(C)C)ccn2)CC1 [Compound 13-9] | 0.101 to 1 | 0.101 to 1 | 1 to 10
NCc1nccn1Cc1cccc(Cl)c1 [Compound 2-13] | > 1 | 1 to 10 | > 5
O=C1CC(NS(=O)(=O)c2cccc3ccccc23)CN1c1ccccc1 (stereo not drawn) [Compound 2-4] | 0.101 to 1 | 0.101 to 1 | 10 to 50
CC(C)(C)C(=O)N1CCN(c2nc(NC3COC3)cc(C(=O)NC[C@H](O)CN3CCc4ccccc4C3)n2)CC1 [Compound 4-9] | < 0.1 | < 0.1 | < 0.1
O=C(CC1NC(N2CCN(Cc3ccccc3)CC2)=NC1=O)Nc1ccc(Cl)cc1 (stereo not drawn) [Compound 22-14] | > 20 | 0.101 to 1 | > 20
CN(C)c1cccc2c(S(=O)(=O)NC3CCN(Cc4ccccc4)C3)cccc12 (stereo not drawn) [Compound 1-5] | 1 to 10 | 0.101 to 1 | > 20
O=C(NC[C@H](O)CN1Cc2ccccc2C1)c1cncc(NC2CCOCC2)c1 [Compound 7-11] | 0.101 to 1 | 0.101 to 1 | 1 to 10
CN(C)c1cccc2c(S(=O)(=O)N[C@H]3CCN(Cc4ccccc4)C3)cccc12 [Compound 2-5, (S)—N-(1-benzylpyrrolidin-3-yl)-5-(dimethylamino)naphthalene-1-sulfonamide] | 0.101 to 1 | < 0.1 | > 20
CC(=O)N1CCC(Nc2cc(C(=O)N(C)C[C@H](O)CN3CCc4ccccc4C3)ncn2)CC1 [Compound 9-9] | 0.101 to 1 | < 0.1 | 0.101 to 1
O=C(NC[C@H](O)CN1Cc2ccccc2C1)c1cc(NC2COC2)nc(N2CCOCC2)n1 [Compound 8-11] | < 0.1 | < 0.1 | 1 to 10
O=C(NC[C@H](O)CN1CCc2ccccc2C1)c1cc(NC2CN(C(=O)C3CCC3)C2)ncn1 [Compound 14-9] | < 0.1 | < 0.1 | < 0.1

The next lines start with results.

EC50 [1] [µM] | IC50 (PRMT5/MEP50) [µM] | SMILES | EC50 (Z-138 cells) [µM]
1 to 10 | 0.101 to 1 | Cc1ccc(C(=O)CC2NC(N3CCN(c4ccccc4)CC3)=NC2=O)cc1 (stereo not drawn) [Compound 1-14] | > 20
0.101 to 1 | < 0.1 | CN(C)c1cccc2c(S(=O)(=O)NCCC(N)c3ccccc3)cccc12 (stereo not drawn) [Compound 3-7] | 10 to 50
> 1 | 10 to 50 | COc1ccc(Cn2c(CN3CCCCC3)cnc2CN)cc1 [Compound 4-13] | > 5
> 1 | 10 to 50 | NCc1nccn1Cc1cccc(Br)c1 [Compound 6-13] | > 5
1 to 10 | 0.101 to 1 | CN(C)c1cccc2c(S(=O)(=O)NCC3CCN(Cc4ccco4)CC3)cccc12 [Compound 3-3] | 10 to 50
0.101 to 1 | < 0.1 | CS(=O)(=O)N1CCC(Nc2cncc(C(=O)NC[C@H](O)CN3Cc4ccccc4C3)c2)CC1 [Compound 2-11] | 10 to 50
> 20 | 0.101 to 1 | CCOc1c(C)cc(S(=O)(=O)NCC2CCN(Cc3cc4cc(OC)ccc4nc3Cl)CC2)cc1C [Compound 15-3] | > 20
< 0.1 | < 0.1 | CC(=O)N1CC(Nc2cc(C(=O)NC[C@@H](O)CN3CCc4ccccc4C3)ncn2)C1 [Compound 7-9] | 1 to 10
0.101 to 1 | < 0.1 | CN(C)c1cccc2c(S(=O)(=O)NC3CN(Cc4ccccc4)C3)cccc12 [Compound 3-5, N-(1-benzylazetidin-3-yl)-5-(dimethylamino)naphthalene-1-sulfonamide] | 10 to 50
0.101 to 1 | 0.101 to 1 | O=C(NC[C@H](O)CN1Cc2ccccc2C1)c1cc(NC2COC2)ncn1 [Compound 3-11] | 10 to 50
> 1 | 0.101 to 1 | Cc1cn(Cc2ccccc2)c(CN)n1 [Compound 3-13] | > 5
0.101 to 1 | 0.101 to 1 | O=C(CC1NC(N2CCN(c3ccccc3)CC2)=NC1=O)Nc1ccc(Cl)cc1 (stereo not drawn) [Compound 1-6] | > 20
0.101 to 1 | 0.101 to 1 | O=C(NC[C@H](O)CN1Cc2ccccc2C1)c1cc(NC2CNC2)ncn1 [Compound 4-11] | > 1
1 to 10 | < 0.1 | CN(C)c1cccc2c(S(=O)(=O)NC3CCN(Cc4ccccc4)CC3)cccc12 [Compound 14-3] | > 20
< 0.1 | 0.101 to 1 | CC(=O)N1CC(Nc2cc(C(=O)N(C)C[C@H](O)CN3CCc4ccccc4C3)ncn2)C1 [Compound 8-9] | 1 to 10
0.101 to 1 | 0.101 to 1 | O=C(NC[C@@H](O)CN1CCc2ccccc2C1)c1cccc(NC2CCOCC2)c1 [Compound 24-9] | > 5
0.101 to 1 | < 0.1 | CN(C)c1cccc2c(S(=O)(=O)NC3CC(=O)N(c4ccccc4F)C3)cccc12 (stereo not drawn) [Compound 5-4] | 1 to 10
0.101 to 1 | < 0.1 | Cn1cnc2ccc(-c3cccc(OCC(O)CN4CCc5ccccc5C4)c3)cc21 (stereo not drawn) [Compound 23-9] | > 1
< 0.1 | < 0.1 | CC(=O)N1CCC(Nc2cc(C(=O)NCC(C)(O)CN3CCc4ccccc4C3)ccn2)CC1 (stereo not drawn) [Compound 12-9] | 1 to 10
< 0.1 | < 0.1 | O=C(NCC(O)CN1CCc2ccccc2C1)c1ccc(OC2CCOC2)cc1 (stereo not drawn) [1-10] | 1 to 10

Source: patent US20170198006A1, “PRMT5 INHIBITORS AND USES THEREOF” (Epizyme, Inc., priority 2014, published 2017)
